Source: PubChem BioAssay (NCI)
Several values for one entry are separate records, joined by “and”; a condition that tells them apart may be missing. Equal values may be shown once.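 Briefly, cells in 96-well plates were exposed to five compound concentrations for 48 h, and endpoints were estimated by linear interpolation. GI50 is the concentration that inhibits growth by half. TGI: concentration producing complete growth inhibition.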

Key:
Assay in all cases: NCI-60 cell line screen, 48 h
[1] = tested on: MOLT-4 leukemia
[2] = tested on: NCI-H522 lung
[3] = tested on: OVCAR-5 ovarian
[4] = tested on: UO-31 renal
[5] = tested on: MCF7 breast
[6] = tested on: MALME-3M melanoma
[7] = tested on: OVCAR-8 ovarian
[8] = tested on: SK-OV-3 ovarian
[9] = tested on: RXF 393 renal
[10] = tested on: HS 578T breast
[11] = tested on: CAKI-1 renal
[12] = tested on: SNB-19 CNS
[13] = tested on: MDA-MB-231 breast

Compound	TGI [1] [µM]	TGI [2] [µM]	TGI [3]	TGI [4] [µM]	TGI [5] [µM]	TGI [6] [µM]	TGI [7] [µM]	TGI [8]	TGI [9]	TGI [10] [µM]	TGI [11]	TGI [12] [µM]	GI50 [1]	GI50 [2]	GI50 [13]	TGI [13]	GI50 [3]	GI50 [5]	GI50 [7]	GI50 [11]
CC[C@H]1C=CCC[C@@]2(C[C@@H]3CC[C@H]4[C@@H](C(=O)OCCCCCCCCCCCCCCCC(=O)N(CCCNC(C)=O)C[C@H](CCNC(C)=O)OC(C)=O)[C@@]5(CCC[C@@H](C)O5)NC(=[N+]34)N2)O1	2.99	2.63	2.96 µM	3.16	2.98	2.99	2.9	3.12 µM	3.44 µM	4.83	5.08 µM	3.07	–	–	–	–	–	–	–	–
C=CCN1C(=O)/C(=C/c2ccc(OC)cc2)N=C1SC1OC(COC(C)=O)C(OC(C)=O)C(OC(C)=O)C1OC(C)=O (stereo unspecified)	> 100	> 100	39.7 µM and > 100 µM	–	> 100	> 100	> 100	36 µM and > 100 µM	46.5 µM and 89.5 µM	–	33 µM and > 100 µM	> 100	58.3 µM and 24.7 µM	5.2 µM and 16.4 µM	18.8 µM and 39.2 µM	42.9 µM and > 100 µM	19.3 µM and 56.3 µM	11.7 µM and > 100 µM	13.1 µM and 54.1 µM	16 µM and > 100 µM
Cc1ccc2nc(-c3ccc(-c4nc5ccc(C)cc5o4)c(O)c3)oc2c1	> 100	–	> 100 µM	> 100	> 100	–	> 100	> 100 µM	–	> 100	–	> 100	–	–	–	> 100 µM	–	–	–	–
Cn1nc(S(N)(=O)=O)s/c1=N/S(=O)(=O)c1ccc(N)cc1	> 100	–	> 100 µM	> 100	–	> 100	> 100	> 100 µM	> 100 µM	–	> 100 µM	> 100	–	–	–	> 100 µM	–	–	–	–
Brc1ccc(N=Nc2ccc3ccccc3n2)cc1	–	21.4	> 100 µM	27.5	> 100	> 100	> 100	49.6 µM	> 100 µM	56.6	47 µM	37.1	–	–	–	–	–	–	–	–
O=C1/C(=C/c2ccc(OC(=O)c3ccc(Cl)cc3)cc2)CCC/C1=C\c1ccc(OC(=O)c2ccc(Cl)cc2)cc1	> 100	> 100	> 100 µM	> 100	> 100	–	> 100	–	–	> 100	> 100 µM	> 100	–	–	–	> 100 µM	–	–	–	–
Cc1cc(C)nc(NS(=O)(=O)c2ccc(Nc3nnc(/C=C/c4c(O)ccc5ccccc45)c(=O)n3N)cc2)n1	> 100	–	75.4 µM	86.3	45.7	92.7	87.2	> 100 µM	55.3 µM	> 100	59.8 µM	> 100	–	–	–	–	–	–	–	–
O=C(Nc1ccccc1[N+](=O)[O-])C(=O)C(C(=O)c1ccccc1-c1ccccc1)C1OC(=O)c2ccccc21 (stereo unspecified)	85.4	25.3	36.8 µM	29.8	–	29.9	44.1	> 100 µM	25.9 µM	–	> 100 µM	33.2	–	–	–	–	–	–	–	–
CN(C)c1cccc(/C=C(\C#N)c2ccccc2)c1	> 21.1	5.75	64 µM	> 100	–	> 73.7	40	> 49.9 µM	4.51 µM	2.79	> 100 µM	> 53.8	–	–	–	53.7 µM	–	–	–	–
CC1(C)CC2C(/C1=N/O)C1(C)CCCC2(C)C1O (stereo unspecified)	> 100	> 100	> 100 µM	> 100	> 100	> 100	> 100	> 100 µM	–	> 100	> 100 µM	> 100	–	–	–	–	–	–	–	–
CC(C)(C)Cc1cc(O)ccc1O	> 100	86.7	> 100 µM	> 100	> 100	> 100	> 100	> 100 µM	> 100 µM	–	> 100 µM	> 100	–	–	–	> 100 µM	–	–	–	–
Cc1ccc(S(=O)(=O)OI(O)CC(F)(F)F)cc1	> 100	> 100	> 100 µM	> 100	> 100	–	> 100	> 100 µM	> 100 µM	–	> 100 µM	–	–	–	–	> 100 µM	–	–	–	–
C/C(=C(/C)c1cc[n+](C)cc1)c1cc[n+](C)cc1	> 75	> 75	> 75 µM	> 75	–	> 75	> 75	> 75 µM	> 75 µM	–	> 75 µM	> 75	–	–	–	–	–	–	–	–
C=CCN(N=O)C(=O)N(CCCCC(NC(C)=O)C(=O)NCc1ccccc1)Cc1ccccc1 (stereo unspecified)	45.4	39.9	> 100 µM	91.7	–	58.9	> 100	> 100 µM	93.1 µM	–	> 100 µM	> 100	–	–	–	–	–	–	–	–
